In one series the test system is Mtb H37Rv. Description: microbe, parasite or virus in culture. In kind it is cell-based, Mycobacterium tuberculosis.
A further series can be described thus: in vitro. Particulars: human, 24 h.
The subject of another series is HepG2 cells. To be noted: 24 h.
[1] abbreviates: Mycobacterium tuberculosis, H37RV, read-out: MIC in 7H9 ADC.
Where [2] appears, read: Mycobacterium tuberculosis, H37RV, read-out: MIC in 7H9 GCas.
[3] abbreviates: Cytotoxicity (IC50) Galactose, HepG2 cells in DMEM/10% FBS with galactose.
Where [4] appears, read: Cytotoxicity (IC50) Glucose, HepG2 cells in DMEM/10% FBS supplemented with glucose.
Where [5] appears, read: read-out: Cytotoxicity (IC50) Galactose, HepG2 cells in DMEM/10% FBS with galactose.
Where [6] appears, read: read-out: Cytotoxicity (IC50) Glucose, HepG2 cells in DMEM/10% FBS supplemented with glucose.

Converted amounts (≈) assume the structure as drawn. “And” between values parts separate entries of the source, which are not always exact repeats. Equal entries are not always repeated. Where two headings read alike, the source gives them in different places.

Take `Cc1nn2c(=O)c(C)c(-c3ccccc3)[nH]c2c1-c1ccccc1` [Compound P6, 2,6-Dimethyl-3,5-diphenylpyrazolo[1,5-a]pyrimidin-7(4H)-one]: the MIC in the series on Mtb H37Rv (setting [1]) was 43.8 µM (≈ 13.8 µg/mL); with Mtb H37Rv (setting [2]), 3.12 µM (≈ 0.984 µg/mL). The half-maximal inhibitory concentration (IC50) in the series “in vitro” (setting [3]) and in “in vitro” (setting [4]) was above 100 µM in each case.
On to `CC(C)c1nn2c(=O)cc(-c3ccccc3)[nH]c2c1-c1ccccc1` [Compound P23, 2-Isopropyl-3,5-diphenylpyrazolo[1,5-a]pyrimidin-7(4H)-one], for which the MIC in the series with Mtb H37Rv (setting [1]) is above 100 µM; in the series with Mtb H37Rv (setting [2]) it was 12.5 µM (≈ 4.12 µg/mL). In addition, the figures for the IC50 in “in vitro” (setting [3]) and in “in vitro” (setting [4]) were 86.2 µM and above 100 µM, respectively.
Consider `Cc1nn2c(=O)nc(-c3ccccc3)[nH]c2c1-c1ccccc1` [Compound P5, 7-Methyl-2,8-diphenylpyrazolo[1,5-a][1,3,5]triazin-4(1H)-one], for which the MIC in the series on Mtb H37Rv (setting [1]) was above 100 µM; in the series on Mtb H37Rv (setting [2]), 50 µM (≈ 15.1 µg/mL); with Mtb H37Rv (read-out: MIC in 7H9 GCas), 50 µM (≈ 15.1 µg/mL).
In the case of `Cc1nn2c(=O)cc(CC3CCCCC3)[nH]c2c1-c1ccccc1` [Compound P9, 5-(Cyclohexylmethyl)-2-methyl-3-phenylpyrazolo[1,5-a]pyrimidin-7(4H)-one], the MIC in the series on Mtb H37Rv (setting [1]) and in the series on Mtb H37Rv (setting [2]) was above 100 µM each time. Further, the IC50 – broadly, the midpoint of a concentration-inhibition curve – in the series “in vitro” (setting [3]) turned out to be 50.5 µM; in “in vitro” (setting [4]), 85.8 µM.
With `O=c1cc(-c2ccc(F)c(F)c2)[nH]c2c(-c3ccccc3)c(C(F)(F)F)nn12` [Compound P27, 5-(3,4-Difluorophenyl)-3-phenyl-2-(trifluoromethyl)pyrazolo[1,5-a]pyrimidin-7(4H)-one], the MIC is above 100 µM with Mtb H37Rv (setting [1]) and 100 µM (≈ 39.1 µg/mL) with Mtb H37Rv (setting [2]). Besides, the IC50 in “in vitro” (setting [3]) and in “in vitro” (setting [4]) was above 100 µM throughout.
In the case of `Cc1nn2c(=O)cc(-c3ccccc3)n(C)c2c1-c1ccccc1` [Compound P2, 2,4-Dimethyl-3,5-diphenylpyrazolo[1,5-a]pyrimidin-7(4H)-one], the MIC in the series with Mtb H37Rv (setting [1]) was above 100 µM; in the series with Mtb H37Rv (setting [2]) it was 50 µM (≈ 15.8 µg/mL); in the series with Mtb H37Rv (read-out: MIC in 7H9 GCas) it was 50 µM (≈ 15.8 µg/mL).
With “5-Cyclohexyl-2-methyl-3-phenylpyrazolo[1,5-a]pyrimidin-7(4H)-one [Compound P11]”, the MIC in the series with Mtb H37Rv (read-out: MIC in 7H9 ADC) and with Mtb H37Rv (read-out: MIC in 7H9 GCas) was above 100 µM each time. For the same molecule, the IC50 in the series with HepG2 cells (setting [5]) and in the series with HepG2 cells (setting [6]) was above 100 µM each time.
For `O=c1cc(-c2ccc(F)c(F)c2)[nH]c2c(-c3ccc(Cl)cc3)cnn12` [Compound P26, 3-(4-Chlorophenyl)-5-(3,4-difluorophenyl)pyrazolo[1,5-a]pyrimidin-7(4H)-one], the “potency relative to P25” value in the series with Mtb H37Rv stood at 4 fold. In addition, the MIC in the series on Mtb H37Rv (setting [1]) and in the series on Mtb H37Rv (setting [2]) was 12.5 µM (≈ 4.47 µg/mL) each time. For the same molecule, the results for the IC50 in the series “in vitro” (setting [3]) and in the series “in vitro” (setting [4]) were 18.5 µM and 57.2 µM, respectively.
In the case of `Cc1nn2c(=O)cc(CN3CCOCC3)[nH]c2c1-c1ccccc1` [Compound P10, 2-Methyl-5-(morpholinomethyl)-3-phenylpyrazolo[1,5-a]pyrimidin-7(4H)-one], the MIC in the series on Mtb H37Rv (setting [1]) and in the series on Mtb H37Rv (setting [2]) was above 100 µM in each case. Besides, the IC50 in “in vitro” (setting [3]) and in “in vitro” (setting [4]) was above 100 µM in each case.
Turning to `O=c1[nH]n2c(=O)cc(-c3ccccc3)[nH]c2c1-c1ccccc1` [Compound P3, 3,5-Diphenylpyrazolo[1,5-a]pyrimidine-2,7(1H,4H)-dione], the MIC with Mtb H37Rv (setting [1]) and with Mtb H37Rv (setting [2]) was above 100 µM throughout.
With “5-(2-Fluorophenyl)-2-methyl-3-phenylpyrazolo[1,5-a]pyrimidin-7(4H)-one [Compound P16]”, the figures for the MIC in the series on Mtb H37Rv (read-out: MIC in 7H9 ADC) and in the series with Mtb H37Rv (read-out: MIC in 7H9 GCas) were 12.5 µM and 3.12 µM, respectively. Moreover, the 50% inhibitory concentration (IC50) in the series on HepG2 cells (setting [5]) and in the series on HepG2 cells (setting [6]) was above 100 µM in each case.
Take `Cc1nn2c(=O)cc(-c3ccccc3)[nH]c2c1C` [Compound P21, 2,3-Dimethyl-5-phenylpyrazolo[1,5-a]pyrimidin-7(4H)-one]: the MIC is above 100 µM with Mtb H37Rv (setting [1]) and 12.5 µM (≈ 2.99 µg/mL) in the series with Mtb H37Rv (setting [2]). Besides, the 50% inhibitory concentration (IC50) in “in vitro” (setting [3]) and in “in vitro” (setting [4]) was above 100 µM each time.
Consider “5-(3-Fluorophenyl)-2-methyl-3-phenylpyrazolo[1,5-a]pyrimidin-7(4H)-one [Compound P17]”, for which the MIC amounted to 6.25 µM in the series on Mtb H37Rv (read-out: MIC in 7H9 ADC) and 1.56 µM in the series on Mtb H37Rv (read-out: MIC in 7H9 GCas). For the same molecule, the IC50 in the series on HepG2 cells (setting [5]) was 93.8 µM; in the series with HepG2 cells (setting [6]), above 100 µM.
As to `Cc1nn2c(=O)c(C(F)(F)F)c(-c3ccccc3)[nH]c2c1-c1ccccc1` [Compound P7, 2-Methyl-3,5-diphenyl-6-(trifluoromethyl)pyrazolo[1,5-a]pyrimidin-7(4H)-one], the values for the MIC in the series with Mtb H37Rv (setting [1]) and with Mtb H37Rv (setting [2]) were 12.5 µM (≈ 4.62 µg/mL) and 3.12 µM (≈ 1.15 µg/mL), respectively.
On to “5-(Furan-3-yl)-2-methyl-3-phenylpyrazolo[1,5-a]pyrimidin-7(4H)-one [Compound P14]”, for which the MIC with Mtb H37Rv (read-out: MIC in 7H9 ADC) is 25.0 µM and 25 µM; in the series with Mtb H37Rv (read-out: MIC in 7H9 GCas), 3.12 µM. The IC50 with HepG2 cells (setting [5]) and with HepG2 cells (setting [6]) was above 100 µM throughout.
With `O=c1cc(-c2ccccc2)[nH]c2c(-c3ccccc3)cnn12` [Compound P22, 3,5-Diphenylpyrazolo[1,5-a]pyrimidin-7(4H)-one], the MIC in the series with Mtb H37Rv (setting [1]) is 12.5 µM (≈ 3.59 µg/mL); in the series with Mtb H37Rv (setting [2]), 6.25 µM (≈ 1.8 µg/mL). For the same molecule, the IC50 in “in vitro” (setting [3]) and in the series “in vitro” (setting [4]) was above 100 µM each time.
With “5-(4-Fluorophenyl)-2-methyl-3-phenylpyrazolo[1,5-a]pyrimidin-7(4H)-one [Compound P18]”, the figures for the MIC in the series on Mtb H37Rv (read-out: MIC in 7H9 ADC) and in the series with Mtb H37Rv (read-out: MIC in 7H9 GCas) were 6.25 µM and 1.56 µM, respectively. The 50% inhibitory concentration (IC50) in the series on HepG2 cells (setting [5]) and in the series with HepG2 cells (setting [6]) was above 100 µM throughout.
`CC/C(=C(\c1ccccc1)c1ccc(OCCN(C)C)cc1)c1ccccc1` [Tamoxifen, reference compound]: the IC50 came out at 5.93 µM in “in vitro” (setting [3]) and 4.18 µM in “in vitro” (setting [4]).
As to Antimycin [reference compound], the IC50 with HepG2 cells (setting [5]) is 3.4 µM; in the series on HepG2 cells (setting [6]), 69.7 µM.
For the molecule “2-Methyl-3-phenyl-5-(pyridin-3-yl)pyrazolo[1,5-a]pyrimidin-7(4H)-one [Compound P13]”, the MIC is 50.0 µM and 50 µM in the series on Mtb H37Rv (read-out: MIC in 7H9 ADC); 12.5 µM in the series on Mtb H37Rv (read-out: MIC in 7H9 GCas). Moreover, the IC50 in the series on HepG2 cells (setting [5]) and with HepG2 cells (setting [6]) was above 100 µM each time.
For `Nc1nn2c(=O)cc(-c3ccccc3)[nH]c2c1-c1ccccc1` [Compound P4, 2-Amino-3,5-diphenylpyrazolo[1,5-a]pyrimidin-7(4H)-one], the MIC came to 28.1 µM (≈ 8.5 µg/mL) in the series on Mtb H37Rv (setting [1]), 25 µM (≈ 7.56 µg/mL) in the series with Mtb H37Rv (setting [2]) and 25 µM (≈ 7.56 µg/mL) in the series on Mtb H37Rv (read-out: MIC in 7H9 GCas).
On to “2-Methyl-3-phenyl-5-(pyrazin-2-yl)pyrazolo[1,5-a]pyrimidin-7(4H)-one [Compound P15]”, for which the MIC was 50.0 µM and 50 µM in the series on Mtb H37Rv (read-out: MIC in 7H9 ADC); 12.5 µM with Mtb H37Rv (read-out: MIC in 7H9 GCas). In addition, the IC50 in the series with HepG2 cells (setting [5]) and with HepG2 cells (setting [6]) was above 100 µM in each case.
Take `COc1cc(-c2ccccc2)nc2c(-c3ccccc3)c(C)nn12` [Compound P1, 7-Methoxy-2-methyl-3,5-diphenylpyrazolo[1,5-a]pyrimidine]: the MIC was 100 µM (≈ 31.5 µg/mL) in the series with Mtb H37Rv (setting [1]) and above 100 µM in the series on Mtb H37Rv (setting [2]).
As for `Cc1nn2c(=O)cc(Cc3ccccc3)[nH]c2c1-c1ccccc1` [Compound P8, 5-Benzyl-2-methyl-3-phenylpyrazolo[1,5-a]pyrimidin-7(4H)-one], the MIC is 75 µM (≈ 23.7 µg/mL) in the series with Mtb H37Rv (setting [1]), 3.12 µM (≈ 0.984 µg/mL) with Mtb H37Rv (setting [2]) and 75 µM (≈ 23.7 µg/mL) in the series on Mtb H37Rv (read-out: MIC in 7H9 ADC). The 50% inhibitory concentration (IC50) in “in vitro” (setting [3]) and in “in vitro” (setting [4]) was above 100 µM each time.
As for “5-Isobutyl-2-methyl-3-phenylpyrazolo[1,5-a]pyrimidin-7(4H)-one [Compound P12]”, the MIC with Mtb H37Rv (read-out: MIC in 7H9 ADC) came to 100 µM; in the series on Mtb H37Rv (read-out: MIC in 7H9 GCas), 12.5 µM. The IC50 in the series with HepG2 cells (setting [5]) and with HepG2 cells (setting [6]) was above 100 µM in each case.

(Values after paper PMC7887755, “Structure–Activity Relationships of Pyrazolo[1,5-a]pyrimidin-7(4H)-ones as Antitubercular Agents” (ACS Infectious Diseases, 2021).)
